Active and inactive are the calls of the source. The rule behind the calls is not given here.
Key:
[1] = Drug uptake in human HEK293T cells using radiolabeled compound at 0.037 MBq incubated for 120 mins by gamma-counting analysis; format: ADME, cell-based; conditions: hek-293t, 2 h
[2] = Drug uptake in human HCT-116 cells using radiolabeled compound at 0.037 MBq incubated for 120 mins by gamma-counting analysis; format: ADME, cell-based; conditions: hct-116, 2 h
[3] = Drug uptake in human A549 cells using radiolabeled compound at 0.037 MBq incubated for 120 mins by gamma-counting analysis; format: ADME, cell-based; conditions: a549, 2 h
[4] = (§1) Selectivity ratio of IC50 for Inhibition of human recombinant CYP1A2 to IC50 for Inhibition of human recombinant CYP1B1; format: ADME; conditions: recombinant enzyme
[5] = (§2) Selectivity ratio of IC50 for Inhibition of human recombinant CYP1A1 to IC50 for Inhibition of human recombinant CYP1B1; format: ADME; conditions: recombinant enzyme
[6] = n-Octanol/PBS partition coefficient, log D of the radiolabeled compound at 0.37 MBq at pH 7.4 by gamma-counting analysis; format: physicochemical
Cytochrome P450 1B1 = target: T1, Cytochrome P450 1B1 (Homo sapiens, UniProt Q16678); assay: Inhibition of human recombinant CYP1B1 using 7-ethoxyresorufin as substrate preincubated with enzyme for 5 mins followed by fluorescent substrate and NADPH addition and measured after 35 mins by EROD assay; format: ADME
T1 sequence (Q16678 whole entry): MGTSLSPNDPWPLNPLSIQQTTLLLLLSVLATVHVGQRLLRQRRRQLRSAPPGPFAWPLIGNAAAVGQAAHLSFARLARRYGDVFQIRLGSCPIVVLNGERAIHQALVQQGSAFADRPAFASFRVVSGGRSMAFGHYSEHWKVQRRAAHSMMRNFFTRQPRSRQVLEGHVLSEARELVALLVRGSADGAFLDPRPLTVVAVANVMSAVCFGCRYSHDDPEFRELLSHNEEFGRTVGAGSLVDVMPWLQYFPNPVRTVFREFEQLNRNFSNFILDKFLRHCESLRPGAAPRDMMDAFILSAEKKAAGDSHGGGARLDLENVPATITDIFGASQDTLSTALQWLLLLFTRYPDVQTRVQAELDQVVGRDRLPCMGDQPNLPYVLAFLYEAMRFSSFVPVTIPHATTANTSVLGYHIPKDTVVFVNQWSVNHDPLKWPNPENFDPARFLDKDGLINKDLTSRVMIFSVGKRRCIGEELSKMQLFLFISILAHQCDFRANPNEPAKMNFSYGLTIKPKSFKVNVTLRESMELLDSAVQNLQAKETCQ

Cytochrome P450 1A2 = target: T2, Cytochrome P450 1A2 (Homo sapiens, UniProt P05177); assay: Inhibition of human recombinant CYP1A2 using 7-ethoxyresorufin as substrate preincubated with enzyme for 5 mins followed by fluorescent substrate and NADPH addition and measured after 50 mins by EROD assay; format: ADME
T2 sequence (P05177 whole entry): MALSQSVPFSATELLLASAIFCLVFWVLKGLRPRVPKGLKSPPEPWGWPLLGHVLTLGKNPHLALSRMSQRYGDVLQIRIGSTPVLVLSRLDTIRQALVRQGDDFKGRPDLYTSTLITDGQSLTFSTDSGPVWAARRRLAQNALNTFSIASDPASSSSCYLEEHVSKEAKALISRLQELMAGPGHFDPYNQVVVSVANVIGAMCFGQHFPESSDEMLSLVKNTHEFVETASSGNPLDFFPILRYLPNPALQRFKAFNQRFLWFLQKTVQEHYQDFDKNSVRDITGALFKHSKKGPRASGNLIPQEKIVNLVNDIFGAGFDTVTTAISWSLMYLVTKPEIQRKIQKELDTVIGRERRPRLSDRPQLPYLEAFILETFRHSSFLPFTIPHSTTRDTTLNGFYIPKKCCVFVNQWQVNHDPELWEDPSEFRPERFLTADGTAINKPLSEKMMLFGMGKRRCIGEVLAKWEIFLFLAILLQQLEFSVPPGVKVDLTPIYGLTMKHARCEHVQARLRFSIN

Cytochrome P450 1A1 = target: T3, Cytochrome P450 1A1 (Homo sapiens, UniProt P04798); assay: Inhibition of human recombinant CYP1A1 using 7-ethoxyresorufin as substrate preincubated with enzyme for 5 mins followed by fluorescent substrate and NADPH addition and measured after 15 mins by EROD assay; format: ADME
T3 sequence (P04798 whole entry): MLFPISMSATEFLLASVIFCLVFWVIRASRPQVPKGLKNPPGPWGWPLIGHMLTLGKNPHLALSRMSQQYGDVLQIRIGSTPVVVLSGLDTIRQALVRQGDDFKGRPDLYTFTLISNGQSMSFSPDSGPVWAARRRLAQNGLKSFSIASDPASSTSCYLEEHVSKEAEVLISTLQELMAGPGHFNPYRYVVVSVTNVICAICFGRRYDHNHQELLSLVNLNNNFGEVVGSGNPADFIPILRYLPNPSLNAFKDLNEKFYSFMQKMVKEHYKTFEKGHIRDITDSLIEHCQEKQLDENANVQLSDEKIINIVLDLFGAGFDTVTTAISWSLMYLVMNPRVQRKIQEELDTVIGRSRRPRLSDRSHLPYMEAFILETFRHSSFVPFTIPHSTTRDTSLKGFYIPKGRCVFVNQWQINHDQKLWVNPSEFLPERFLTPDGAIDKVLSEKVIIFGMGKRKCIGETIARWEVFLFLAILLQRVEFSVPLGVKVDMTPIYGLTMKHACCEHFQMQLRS

A549 [7] = assay: Inhibition of tumor metastasis in DMBA-stimulated PTX resistant human A549 cells assessed as inhibition of cell migration by measuring decrease in crawling ability of cells at 2.5 to 10 uM incubated for 48 hrs by wound healing assay; format: functional, cell-based; conditions: dose 2.5-10 µM
A549 [8] = assay: Reversal of DMBA-stimulated PTX resistance in human A549 cells assessed as decrease in cell viability at 1.25 to 10 uM incubated for 24 hrs in presence of DMBA and paclitaxel by MTT assay; format: functional, cell-based; conditions: dose 1.25-10 µM
CYP1B1 [9] = target: T4, CYP1B1 (Homo sapiens, UniProt Q16678); assay: Inhibition of human recombinant CYP1B1 using 7-ethoxyresorufin as substrate at 1 uM preincubated with enzyme for 5 mins followed by fluorescent substrate and NADPH addition and measured after 35 mins by EROD assay; format: ADME; conditions: recombinant CYP1B1, probe 7-ethoxyresorufin, time 40 min
T4 sequence (Q16678 whole entry): T1 sequence (Q16678 whole entry)

CYP1B1 [10] = target: T4, CYP1B1; assay: Inhibition of human recombinant CYP1B1 using 7-ethoxyresorufin as substrate at 0.01 uM preincubated with enzyme for 5 mins followed by fluorescent substrate and NADPH addition and measured after 35 mins by EROD assay; format: ADME; conditions: recombinant CYP1B1, probe 7-ethoxyresorufin, time 40 min
CYP1A2 versus CYP1B1 = assay: as §1; format: ADME; conditions: recombinant CYP1A2 and recombinant CYP1B1, read-out: Ratio IC50
CYP1A1 versus CYP1B1 = assay: as §2; format: ADME; conditions: recombinant CYP1A1 and recombinant CYP1B1, read-out: Ratio IC50
[11] = n-Octanol/water partition coefficient, logP of the compound by HPLC analysis; format: physicochemical
A549 [12] = assay: Induction of apoptosis in DMBA-stimulated PTX resistant human A549 cells assessed as apoptosis rate at 5 uM incubated for 24 hrs by flow cytometry (reference value: 6.67 +/- 1.03%); format: functional
HEK-293T = assay: Cytotoxicity against human HEK293T cells assessed as reduction in cell viability at 0.625 to 20 uM incubated for 48 hrs by MTT assay; format: toxicity, cell-based; conditions: dose 0.625-20 µM
A549 [13] = assay: Cytotoxicity against human A549 cells assessed as reduction in cell viability at 0.625 to 20 uM incubated for 48 hrs by MTT assay; format: toxicity, cell-based; conditions: a549, 48 h, dose 0.625-20 µM
[14] = n-octanol/water, read-out: logP

SMILES | IC50 (Cytochrome P450 1B1) | IC50 (Cytochrome P450 1A2) | IC50 (Cytochrome P450 1A1) | inhibition at 35 min, 1 µM (CYP1B1 [9]) | inhibition at 35 min, 0.01 µM (CYP1B1 [10]) | further results
FCCNc1nc(-c2ccc(I)cc2)nc2ccccc12 [listing 1 of 2 here] | 0.24 nM | 727 nM | 36.7 nM | – | – | Drug uptake [1]: Active; Drug uptake [2]: Active; Drug uptake [3]: Active; Ratio IC50 [4]: 3029.17; Ratio IC50 [5]: 151.87; logD ([6]; n-octanol/PBS, read-out: logD): 3.34
FCCNc1nc(-c2ccc(I)cc2)nc2ccccc12 [listing 2 of 2 here] | – | – | – | – | – | inhibition (A549 [7]): Active; Activity (A549 [8]): Active
CNc1nc(-c2ccc(I)cc2)nc2ccccc12 [listing 1 of 2 here] | 0.000747 nM | 1110 nM | 26.5 nM | – | – | Drug uptake [1]: Active; Drug uptake [2]: Active; Drug uptake [3]: Active; Ratio IC50 [4]: 1.49 10^6No_unit; Ratio IC50 [5]: 3.54 10^4No_unit; logD ([6]; octanol/water): 3.55
CCNc1nc(-c2ccc(I)cc2)nc2ccccc12 [listing 1 of 2 here] | – | – | – | – | – | inhibition (A549 [7]): Active; Activity (A549 [8]): Active
Nc1nc(-c2ccc(Br)cc2)nc2ccccc12 | 0.49 nM | 1990 nM | 104 nM | 96.4% | 82.7% | selectivity ratio (CYP1A2 versus CYP1B1): 4060; selectivity ratio (CYP1A1 versus CYP1B1): 211; logP [11, 14]: 2.12
Nc1nc(-c2ccc(Br)cc2)nc2c1ccc1ccccc12 | 3.07 nM | 784 nM | 28.1 nM | 95.4% | 80.6% | selectivity ratio (CYP1A2 versus CYP1B1): 256; selectivity ratio (CYP1A1 versus CYP1B1): 9.16
CCNc1nc(-c2ccc(I)cc2)nc2ccccc12 [listing 2 of 2 here] | 0.000205 nM | 968 nM | 1.63 nM | – | – | Drug uptake [1]: Active; Drug uptake [2]: Active; Drug uptake [3]: Active; selectivity ratio (CYP1A2 versus CYP1B1): 4.72e+06; Ratio IC50 [5]: 7.95 10^5No_unit; logD ([6]; n-octanol/PBS, read-out: logD): 3.54
Nc1nc(-c2ccc(I)cc2)nc2ccccc12 | – | – | – | – | – | inhibition (A549 [7]): Active
CN(C)c1nc(-c2ccc(I)cc2)nc2ccccc12 | – | – | – | 95.5% | 65.4% | –
CC(C)Nc1nc(-c2ccc(I)cc2)nc2ccccc12 | – | – | – | 95.3% | 32.8% | –
Nc1nc(-c2ccc(Cl)cc2)nc2ccccc12 | – | – | – | 96% | 68.4% | –
COc1ccc(-c2nc(N)c3ccccc3n2)cc1 | 2.48 nM | 5840 nM | 248 nM | 91.8% | 84.1% | selectivity ratio (CYP1A2 versus CYP1B1): 2360; selectivity ratio (CYP1A1 versus CYP1B1): 99.9
Ic1ccc(-c2nc(N3CCCCC3)c3ccccc3n2)cc1 | – | – | – | 91.1% | 13.8% | –
Nc1nc(-c2cccc(I)c2)nc2ccccc12 | – | – | – | 96.7% | 66.4% | –
OCCNc1nc(-c2ccc(I)cc2)nc2ccccc12 | – | – | – | 96.5% | 68.5% | –
COc1cccc(-c2nc(N)c3ccc4ccccc4c3n2)c1 | – | – | – | 94.8% | 3.87% | –
CCNc1nc(-c2ccc(I)cc2)nc2ccccc12.Cl | – | 1500 nM | 85.8 nM | 95.2% | 93.7% | Ratio IC50 [5]: 2.07 10^6No_unit; Activity (A549 [12]): 26.15%; Activity (HEK-293T): Non-Toxic; logP [11, 14]: 3.81; Activity (A549 [13]): Non-Toxic
CNc1nc(-c2ccc(I)cc2)nc2ccccc12 [listing 2 of 2 here] | – | – | – | – | – | inhibition (A549 [7]): Active; Activity (A549 [8]): Active
C#CCOc1ccc(-c2nc(N)c3ccccc3n2)cc1 | – | – | – | 96% | 74.4% | –
Cl.Nc1nc(-c2ccc(I)cc2)nc2ccccc12 | 0.02 nM | 2030 nM | 12.3 nM | 96.7% | 94.5% | selectivity ratio (CYP1A2 versus CYP1B1): 101000; Ratio IC50 [5]: 617.5; Activity (A549 [12]): 18.53%; logP ([11]; octanol/water): 2.71
Nc1nc(-c2ccc(Cl)nc2)nc2ccccc12 | – | – | – | 68% | 6.96% | –
Cc1ccc(-c2nc(N)c3ccccc3n2)cc1 | 1.69 nM | 5340 nM | 263 nM | 97.8% | 89.6% | selectivity ratio (CYP1A2 versus CYP1B1): 3160; selectivity ratio (CYP1A1 versus CYP1B1): 156
Nc1nc(-c2ccccc2)nc2ccccc12 | – | – | – | 65.5% | -13.5% | –
